According to PubChem BioAssay AID248 (DTP/NCI, 2004):
“And” between values parts separate entries of the source, which are not always exact repeats. Equal values may be shown once. Inconclusive results and toxic doses are left out. No stated cut-off is given here; in the data, active means T/C of 150% or more; inactive means T/C below 125%.

Tested on: L1210 leukemia ip in BDF1 mice, survival T/C
Assay: NCI In Vivo Anticancer Drug Screen. Data for tumor model L1210 Leukemia (intraperitoneal) in B6D2F1 (BDF1) mice
Settings: endpoint: mean survival time, higher = longer survival
How it was run: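 Transplanted-tumor mice were given test agent; controls received vehicle only. Survival readings from the two groups were divided (treated over control).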

[1] = dose: 50.0 mg/kg/injection, schedule: Q01DX001 (ip), vehicle: saline
[2] = dose: 200.0 mg/kg/injection, schedule: Q01DX001 (ip), vehicle: saline

Measured: T/C

C[n+]1ccc(Nc2ccc(NC(=O)c3ccc(Nc4cc[n+](C)c5ccc(N)cc45)cc3N)cc2)cc1
active: dose: 1.0 mg/kg/injection, schedule: Q03HX016 (ip), vehicle: water 159 % of control | dose: 1.0 mg/kg/injection, schedule: Q03HX024 (ip), vehicle: water 165 % of control | dose: 2.0 mg/kg/injection, schedule: Q01DX009 (ip), vehicle: water 151 % of control and 157 % of control and 205 % of control | dose: 2.0 mg/kg/injection, schedule: Q03HX008 (ip), vehicle: water 155 % of control and 170 % of control | dose: 2.0 mg/kg/injection, schedule: Q03HX016 (ip), vehicle: water 158 % of control and 216 % of control | dose: 2.0 mg/kg/injection, schedule: Q03HX024 (ip), vehicle: water 225 % of control and 236 % of control | dose: 2.0 mg/kg/injection, schedule: Q03HX024 (sc), vehicle: water 180 % of control | dose: 4.0 mg/kg/injection, schedule: Q01DX009 (ip), vehicle: water 243 % of control and 248 % of control and 456 % of control | dose: 4.0 mg/kg/injection, schedule: Q01DX009 (sc), vehicle: water 214 % of control | dose: 4.0 mg/kg/injection, schedule: Q03HX008 (ip), vehicle: water 165 % of control and 252 % of control | dose: 4.0 mg/kg/injection, schedule: Q03HX016 (ip), vehicle: water 178 % of control and 326 % of control | dose: 4.0 mg/kg/injection, schedule: Q03HX024 (ip), vehicle: water 233 % of control and 329 % of control | dose: 4.0 mg/kg/injection, schedule: Q03HX024 (sc), vehicle: water 203 % of control | dose: 6.25 mg/kg/injection, schedule: Q01DX009 (ip), vehicle: saline 161 % of control | dose: 8.0 mg/kg/injection, schedule: Q01DX005 (ip), vehicle: water 256 % of control | dose: 8.0 mg/kg/injection, schedule: Q01DX009 (ip), vehicle: water 326 % of control and 417 % of control and 436 % of control | dose: 8.0 mg/kg/injection, schedule: Q01DX009 (sc), vehicle: water 195 % of control | dose: 8.0 mg/kg/injection, schedule: Q03HX008 (ip), vehicle: water 178 % of control | dose: 8.0 mg/kg/injection, schedule: Q03HX024 (ip), vehicle: water 153 % of control | dose: 8.0 mg/kg/injection, schedule: Q03HX024 (sc), vehicle: water 163 % of control | dose: 8.0 mg/kg/injection, schedule: Q04DX003 (ip), vehicle: water 150 % of control | dose: 12.5 mg/kg/injection, schedule: Q01DX009 (ip), vehicle: saline 231 % of control | dose: 16.0 mg/kg/injection, schedule: Q01DX001 (ip), vehicle: water 161 % of control | dose: 16.0 mg/kg/injection, schedule: Q01DX002 (ip), vehicle: water 155 % of control | dose: 16.0 mg/kg/injection, schedule: Q01DX005 (ip), vehicle: water 225 % of control | dose: 16.0 mg/kg/injection, schedule: Q01DX009 (ip), vehicle: water 382 % of control | dose: 16.0 mg/kg/injection, schedule: Q01DX009 (sc), vehicle: water 230 % of control | dose: 16.0 mg/kg/injection, schedule: Q04DX003 (ip), vehicle: water 167 % of control and 168 % of control and 190 % of control | dose: 16.0 mg/kg/injection, schedule: Q08DX002 (ip), vehicle: water 171 % of control | dose: 25.0 mg/kg/injection, schedule: Q01DX009 (ip), vehicle: saline 364 % of control | [1] 161 % of control | dose: 50.0 mg/kg/injection, schedule: Q01DX009 (ip), vehicle: saline 331 % of control | [2] 257 % of control
inactive: dose: 0.25 mg/kg/injection, schedule: Q01DX005 (iv), vehicle: water 104 % of control | dose: 0.5 mg/kg/injection, schedule: Q01DX005 (iv), vehicle: water 97 % of control and 107 % of control | dose: 0.5 mg/kg/injection, schedule: Q01DX009 (ip), vehicle: water 113 % of control | dose: 0.5 mg/kg/injection, schedule: Q03HX008 (ip), vehicle: water 115 % of control | dose: 0.5 mg/kg/injection, schedule: Q03HX016 (ip), vehicle: water 121 % of control | dose: 0.5 mg/kg/injection, schedule: Q03HX024 (sc), vehicle: water 104 % of control | dose: 0.5 mg/kg/injection, schedule: Q04DX003 (iv), vehicle: water 104 % of control | dose: 0.78 mg/kg/injection, schedule: Q01DX009 (ip), vehicle: saline 100 % of control | dose: 1.0 mg/kg/injection, schedule: Q01DX005 (iv), vehicle: water 104 % of control and 105 % of control | dose: 1.0 mg/kg/injection, schedule: Q01DX009 (ip), vehicle: water 118 % of control | dose: 1.0 mg/kg/injection, schedule: Q01DX009 (oral), vehicle: water 109 % of control | dose: 1.0 mg/kg/injection, schedule: Q01DX009 (sc), vehicle: saline with Tween-80 101 % of control | dose: 1.0 mg/kg/injection, schedule: Q01DX009 (sc), vehicle: water 106 % of control | dose: 1.0 mg/kg/injection, schedule: Q03HX024 (oral), vehicle: water 94 % of control and 103 % of control | dose: 1.0 mg/kg/injection, schedule: Q03HX024 (sc), vehicle: water 114 % of control | dose: 1.0 mg/kg/injection, schedule: Q04DX003 (iv), vehicle: water 102 % of control | dose: 1.56 mg/kg/injection, schedule: Q01DX009 (ip), vehicle: saline 114 % of control | dose: 2.0 mg/kg/injection, schedule: Q01DX001 (ip), vehicle: water 106 % of control | dose: 2.0 mg/kg/injection, schedule: Q01DX002 (ip), vehicle: water 110 % of control | dose: 2.0 mg/kg/injection, schedule: Q01DX005 (iv), vehicle: water 115 % of control and 116 % of control | dose: 2.0 mg/kg/injection, schedule: Q01DX009 (oral), vehicle: water 107 % of control | dose: 2.0 mg/kg/injection, schedule: Q03HX024 (oral), vehicle: water 102 % of control and 103 % of control | dose: 2.0 mg/kg/injection, schedule: Q04DX003 (ip), vehicle: water 105 % of control | dose: 2.0 mg/kg/injection, schedule: Q04DX003 (iv), vehicle: water 104 % of control | dose: 4.0 mg/kg/injection, schedule: Q01DX001 (ip), vehicle: water 116 % of control | dose: 4.0 mg/kg/injection, schedule: Q01DX002 (ip), vehicle: water 117 % of control | dose: 4.0 mg/kg/injection, schedule: Q01DX009 (oral), vehicle: water 106 % of control | dose: 4.0 mg/kg/injection, schedule: Q03HX024 (oral), vehicle: water 100 % of control and 110 % of control | dose: 4.0 mg/kg/injection, schedule: Q04DX003 (ip), vehicle: water 120 % of control | dose: 4.0 mg/kg/injection, schedule: Q04DX003 (iv), vehicle: water 102 % of control | dose: 8.0 mg/kg/injection, schedule: Q01DX001 (ip), vehicle: water 116 % of control | dose: 8.0 mg/kg/injection, schedule: Q01DX009 (oral), vehicle: water 98 % of control and 103 % of control and 111 % of control | dose: 8.0 mg/kg/injection, schedule: Q03HX024 (oral), vehicle: water 100 % of control | dose: 10.0 mg/kg/injection, schedule: Q01DX009 (oral), vehicle: saline with Tween-80 100 % of control | dose: 16.0 mg/kg/injection, schedule: Q01DX009 (oral), vehicle: water 98 % of control and 103 % of control | dose: 20.0 mg/kg/injection, schedule: Q01DX009 (oral), vehicle: saline with Tween-80 104 % of control | dose: 25.0 mg/kg/injection, schedule: Q01DX001 (ip), vehicle: saline 108 % of control | dose: 32.0 mg/kg/injection, schedule: Q01DX009 (oral), vehicle: water 100 % of control | dose: 64.0 mg/kg/injection, schedule: Q01DX009 (oral), vehicle: water 106 % of control and 109 % of control | dose: 80.0 mg/kg/injection, schedule: Q01DX009 (oral), vehicle: saline with Tween-80 106 % of control | dose: 160.0 mg/kg/injection, schedule: Q01DX009 (oral), vehicle: saline with Tween-80 101 % of control

COc1cccc(CC#N)c1
inactive: dose: 12.5 mg/kg/injection, schedule: Q01DX001 (ip), vehicle: saline with Tween-80 106 % of control | dose: 25.0 mg/kg/injection, schedule: Q01DX001 (ip), vehicle: saline with Tween-80 93 % of control | dose: 50.0 mg/kg/injection, schedule: Q01DX001 (ip), vehicle: saline with Tween-80 97 % of control

CCCCCCCCCCN=C(N)N/C(N)=N/S(=O)(=O)c1ccc(OCCCCCCCCC)cc1
inactive: dose: 100.0 mg/kg/injection, schedule: Q04DX002 (ip), vehicle: Klucel (hydroxypropylcellulose) (HPC) 97 % of control | dose: 200.0 mg/kg/injection, schedule: Q04DX002 (ip), vehicle: Klucel (hydroxypropylcellulose) (HPC) 89 % of control | dose: 400.0 mg/kg/injection, schedule: Q04DX002 (ip), vehicle: Klucel (hydroxypropylcellulose) (HPC) 89 % of control

COC(c1ccccc1)(c1ccccc1)N(C)C
inactive: [1] 97 % of control | dose: 100.0 mg/kg/injection, schedule: Q01DX001 (ip), vehicle: saline 105 % of control | [2] 97 % of control | dose: 400.0 mg/kg/injection, schedule: Q01DX001 (ip), vehicle: saline 94 % of control
